{"source": "paper PMC10516900", "about": "(Communications Biology, 2023)", "assay_type_in_all_cases": "cell-based, human", "key": {"[1]": {"tested_on": "HCT116 (p53-/-) cells", "assay": "Cell proliferation assay (WST-1), HCT116 (p53-/-)", "settings": "for Cell viability (WST-1 absorbance): P53-/-, absorbance at 450 nm", "description": "(§1) After transfection, a cell proliferation assay was conducted each day using EZ-Cytox (Daeilbio, WST-1; #EZ-1000), using the manufacturer’s instructions. For P50429, the cells were seeded at 3000 or 6000 cells per well with an inhibitor concentration of 25 μM and 12.5 to 100 μM, respectively. EZ-Cytox (DoGEN, EZ-3000) was diluted using media and incubated for 30 min. The absorbance was measured at a wavelength of 450 nm using a microplate absorbance reader (Bio-Rad)."}, "[2]": {"tested_on": "HCT116 (p53+/+) cells", "assay": "Q-PCR relative expression levels, HCT116 (p53+/+)"}, "[3]": {"tested_on": "p53", "assay": "Western blot analysis of protein levels, HCT116 (p53+/+)", "description": "Stained colonies were counted in three independent experiments. The data represent the mean ± SD (*: p < 0.05, **: p < 0.005, and ***: p < 0.0005).\nA total of 10–50 μg protein was extracted from cells and used for Western blot analysis. Briefly, the cells were lysed using protein lysis buffer (50 mM Tris–Cl, 150 mM NaCl, 1% Triton X-100, 1 mM EDTA, 200 mM Na3VO4, 1x proteinase inhibitor, pH 7.4) and the protein concentration was measured using a Micro BCA^TM Protein Assay kit (Thermo Scientific), based on the standard curve of BSA. The antibodies used for immunoblot analysis were purchased and assessed for equal loading as follows: rabbit anti-USP7 (#A300-034, dilution ratio 1:1000) and rabbit anti-USP47 (#A301-048A, 1:1000) from Bethyl Laboratories; mouse anti-Flag (#F1804, 1:1000) from Sigma Aldrich; rabbit anti-ubiquitin (#3933, 1:2000) from Cell Signaling; mouse anti-p53 (#sc-126, 1:1000), and mouse anti-HSP90α/β (#sc-13119, 1:5000) from Santa Cruz Biotechnology; rabbit anti-β-actin (#LF-PA0207, 1:5000) from AbFrontier. Samples were analyzed using SDS-PAGE, and chemiluminescence was measured using the Ez-Capture MG imaging system (ATTO Corporation)."}, "[4]": {"tested_on": "HCT116 (p53+/+) cells", "assay": "Cell proliferation assay (WST-1), HCT116 (p53+/+)", "settings": "absorbance at 450 nm", "description": "as §1"}, "[5]": {"tested_on": "HCT116 (p53-/-) cells", "assay": "Colony formation assay, HCT116 (p53-/-)", "settings": "for Colony formation, colony number: KO (p53-/-), 10 days, three experiments and AVERAGE", "description": "(§2) The cells were re-suspended with trypsin-EDTA, and 1000 cells were seeded in 35 mm dishes 48 h after transfection. After 10 days, the cells were washed with PBS and fixed in 4% paraformaldehyde for 10 min before being stained with Crystal violet for 30 min and washed with PBS."}, "[6]": {"tested_on": "HCT116 (p53+/+) cells", "assay": "Colony formation assay, HCT116 (p53+/+)", "settings": "for Colony formation, colony number: WT (p53+/+), 10 days, three experiments and AVERAGE", "description": "as §2"}, "[7]": {"tested_on": "HCT116 (p53-/-) cells", "assay": "Q-PCR relative expression levels, HCT116 (p53-/-)", "from_the_text": "(d) Western blot analysis was\nThe data represent the mean ± SD (*;p<0.05,\n(1 picture or pasted object on this page, not shown here)"}}, "note": "Several values for one entry are separate records, joined by “and”; a condition that tells them apart may be missing. Equal values may be shown once."}
{"substance": "USP47i: siRNA targeting USP47 (5′-TGAAAAGGGATGTGCAAAA-3′) (chemistry not given here)", "values": [{"measurement": "Cell viability (WST-1 absorbance)", "setting": "[1]; day 1 after transfection", "result": 0.306}, {"measurement": "Cell viability (WST-1 absorbance)", "setting": "[1]; day 2 after transfection", "result": 0.559}, {"measurement": "Cell viability (WST-1 absorbance)", "setting": "[1]; day 3 after transfection", "result": 0.8146}, {"measurement": "Cell viability (WST-1 absorbance)", "setting": "[1]; day 4 after transfection", "result": 1.235}, {"measurement": "cell viability compared to control cells", "setting": "[1]; p53-deficient HCT116", "result": "did not yield any discernible differences"}, {"measurement": "relative expression level of USP7 (Q-PCR)", "setting": "[2]", "result": 1.017}, {"measurement": "relative expression level of USP47 (Q-PCR)", "setting": "[2]", "result": 0.5092}, {"measurement": "protein levels of p53", "setting": "[3]", "result": "increased"}, {"measurement": "Cell viability (WST-1 absorbance)", "setting": "[4]; day 1 after transfection", "result": 0.327}, {"measurement": "Cell viability (WST-1 absorbance)", "setting": "[4]; day 2 after transfection", "result": 0.527}, {"measurement": "Cell viability (WST-1 absorbance)", "setting": "[4]; day 3 after transfection", "result": 0.7565}, {"measurement": "Cell viability (WST-1 absorbance)", "setting": "[4]; day 4 after transfection", "result": 0.9428}, {"measurement": "Colony formation, colony number", "setting": "[5]", "result": "367 and 379 and 377"}, {"measurement": "Colony formation, colony number", "setting": "[5]; mean", "result": 374.333}, {"measurement": "colony formation compared to control cells", "setting": "[5]; p53-deficient HCT116", "result": "did not yield any discernible differences"}, {"measurement": "decrease in the number of colonies relative to control cells", "setting": "[6]; HCT116 p53+/+, Fig. 1b", "result": "approximately 30%"}, {"measurement": "Colony formation, colony number", "setting": "[6]", "result": "271 and 259 and 252"}, {"measurement": "Colony formation, colony number", "setting": "[6]; mean", "result": 260.667}, {"measurement": "relative expression level of USP7 (Q-PCR)", "setting": "[7]", "result": 0.9689}, {"measurement": "relative expression level of USP47 (Q-PCR)", "setting": "[7]", "result": 0.3387}]}
